Assay results reported in US6465509B2, “Pyrones as inhibitors of cyclooxygenase-2” (Merck Frosst Canada & Co., priority 2000, dated 2002).

What was measured:
COX-1 = COX-1 (Homo sapiens, UniProt P23219); experiment: Human whole blood assay, COX-1 (clotting-induced TxB2 production); format: cell-based; parameters: endogenous in cells; host or cells: platelets in fresh human whole blood without anticoagulant; settings: clotting-induced TxB2, 1 hour at 37° C., read-out: COX-1 (IC50 μM) HWB
Protocol: Human whole blood provides a protein and cell-rich milieu appropriate for the study of biochemical efficacy of anti-inflammatory compounds such as selective COX-2 inhibitors. […] This is consistent with the observation that COX-2 inhibitors have no effect on PGE2 production in normal blood. These inhibitors are active only after incubation of human whole blood with LPS, which induces COX-2. This assay can be used to evaluate the inhibitory effect of selective COX-2 inhibitors on PGE2 production. As well, platelets in whole blood contain a large amount of the COX-1 enzyme. Immediately following blood clotting, platelets are activated through a thrombin-mediated mechanism. This reaction results in the production of thromboxane B2 (TxB2) via activation of COX-1. Thus, the effect of test compounds on TxB2 levels following blood clotting can be examined and used as an index for COX-1 activity. Therefore, the degree of selectivity by the test compound can be determined by measuring the levels of PGE2 after LPS induction (COX-2) and TxB2 following blood clotting (COX-1) in the same assay.
B. COX-1 (Clotting-induced TxB2 production)
Fresh blood is collected into vacutainers containing no anticoagulants. Aliquots of 500 μL are immediately transferred to siliconized microcentrifuge tubes preloaded with 2 μL of either DMSO or a test compound at final concentrations varying from 10 nM to 30 μM. The tubes are vortexed and incubated at 37° C. for 1 hour to allow blood to clot. At the end of incubation, serum is obtained by centrifugation (12,000×g for 5 min.). A 100 μL aliquot of serum is mixed with 400 μL of methanol for protein precipitation. The supernatant is obtained and is assayed for TxB2 using a enzyme immunoassay kit (Cayman, #519031) according to the manufacturer's instruction.

COX-2 = biological target: T1, COX-2 (Homo sapiens, UniProt P35354); experiment: Whole cell assay for COX-2 using CHO[hCOX-2] transfected cell line; format: cell-based; parameters: expressed in transfected cells; host or cells: CHO cells stably transfected with pCDNAIII (CHO[hCOX-2]); settings: CHO[hCOX-2] cells, PGE2 synthesis, 10 μM AA
T1 sequence (P35354 18-604): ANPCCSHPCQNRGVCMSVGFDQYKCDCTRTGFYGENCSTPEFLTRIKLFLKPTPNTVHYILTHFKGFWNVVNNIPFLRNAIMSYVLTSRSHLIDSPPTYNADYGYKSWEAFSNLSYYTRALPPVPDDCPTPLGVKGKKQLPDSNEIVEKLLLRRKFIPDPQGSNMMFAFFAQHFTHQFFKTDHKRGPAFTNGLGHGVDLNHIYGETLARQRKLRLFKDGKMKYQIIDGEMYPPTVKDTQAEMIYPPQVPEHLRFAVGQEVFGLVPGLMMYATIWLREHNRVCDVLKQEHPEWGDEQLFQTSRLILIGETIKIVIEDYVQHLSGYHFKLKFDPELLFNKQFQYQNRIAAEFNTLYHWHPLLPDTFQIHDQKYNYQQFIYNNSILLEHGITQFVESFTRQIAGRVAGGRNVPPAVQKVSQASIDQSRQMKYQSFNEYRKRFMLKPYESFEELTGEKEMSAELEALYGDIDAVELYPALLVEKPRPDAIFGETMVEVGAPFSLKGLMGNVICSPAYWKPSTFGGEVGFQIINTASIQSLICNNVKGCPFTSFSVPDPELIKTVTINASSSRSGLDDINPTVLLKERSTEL
Description: Whole cell assays for COX-2 and COX-1 using CHO transfected cell lines
Chinese hamster ovary (CHO) cell lines which have been stably transfected with an eukaryotic expression vector pCDNAIII containing either the human COX-1 or COX-2 cDNA's are used for the assay. These cell lines are referred to as CHO[hCOX-1] and CHO[hCOX-2], respectively. For cyclooxygenase assays, CHO[hCOX-1] cells from suspension cultures and CHO[hCOX-2] cells prepared by trypsinization of adherent cultures are harvested by centrifugation (300×g, 10 min) and washed once in HBSS containing 15 mM HEPES, pH 7.4, and resuspended in HBSS, 15 mM HEPES, pH 7.4, at a cell concentration of 1.5×10^6 cells/ml. Drugs to be tested are dissolved in DMSO to 66.7-fold the highest test drug concentration. Compounds are typically tested at 8 concentrations in duplicate using serial 3-fold serial dilutions in DMSO of the highest drug concentration. Cells (0.3×10^6 cells in 200 μl) are preincubated with 3 μl of the test drug or DMSO vehicle for 15 min at 37° C. Working solutions of peroxide-free AA (5.5 μM and 110 μM AA for the CHO[hCOX-1] and CHO[COX-2] assays, respectively) are prepared by a 10-fold dilution of a concentrated AA solution in ethanol into HBSS containing 15 mM HEPES, pH 7.4. Cells are then challenged in the presence or absence of drug with the AA/HBSS solution to yield a final concentration of 0.5 μM AA in the CHO[hCOX-1] assay and a final concentration of 10 μM AA in the CHO[hCOX-2] assay. The reaction is terminated by the addition of 10 μl 1N HCl followed by neutralization with 20 μl of 0.5N NaOH. The samples are centrifuged at 300×g at 4° C. for 10 min, and an aliquot of the clarified supernatant is appropriately diluted for the determination of PGE2 levels using an enzyme-linked immunoassay for PGE2 (Correlate PGE2 enzyme immunoassay kit, Assay Designs, Inc.). Cyclooxygenase activity in the absence of test compounds is determined as the difference in PGE2 levels of cells challenged with arachidonic acid versus the PGE2 levels in cells mock-challenged with ethanol vehicle. Inhibition of PGE2 synthesis by test compounds is calculated as a percentage of the activity in the presence of drug versus the activity in the positive control samples.
Compounds of the present invention are inhibitors of cyclooxygenase-2 and are thereby useful in the treatment of cyclooxygenase-2 mediated diseases as enumerated above. The activities of the compounds against cyclooxygenase may be seen in the representative results shown below. In the assay, inhibition is determined by measuring the amount of prostaglandin E2 (PGE2) synthesized in the presence of arachidonic acid, cyclooxygenase-1 or cyclooxygenase-2 and a putative inhibitor. The IC50 values represent the concentration of putative inhibitor required to return PGE2 synthesis to 50% of that obtained as compared to the uninhibited control.

Sequence of COX-1 (P23219 24-599): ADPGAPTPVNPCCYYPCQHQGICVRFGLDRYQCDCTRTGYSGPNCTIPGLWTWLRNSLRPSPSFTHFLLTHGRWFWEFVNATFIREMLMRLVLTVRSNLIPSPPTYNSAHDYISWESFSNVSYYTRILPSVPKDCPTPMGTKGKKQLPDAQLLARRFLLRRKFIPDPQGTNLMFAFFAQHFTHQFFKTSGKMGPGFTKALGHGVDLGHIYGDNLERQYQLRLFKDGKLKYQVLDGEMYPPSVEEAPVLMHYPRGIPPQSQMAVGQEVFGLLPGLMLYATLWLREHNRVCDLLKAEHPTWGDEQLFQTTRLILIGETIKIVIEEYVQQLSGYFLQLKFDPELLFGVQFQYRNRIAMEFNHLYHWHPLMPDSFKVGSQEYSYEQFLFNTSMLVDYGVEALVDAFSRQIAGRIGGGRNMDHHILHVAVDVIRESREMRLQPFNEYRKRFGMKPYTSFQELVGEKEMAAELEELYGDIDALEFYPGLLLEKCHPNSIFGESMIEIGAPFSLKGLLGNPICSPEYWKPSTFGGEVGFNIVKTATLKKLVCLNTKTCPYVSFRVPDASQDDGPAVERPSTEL

Cc1cc(-c2ccc(S(C)(=O)=O)cc2)c(-c2cccc(F)c2)c(=O)o1 [Example 3, 3-(3-Fluorophenyl)-6-methyl-4-(4-methylsulfonyl)phenyl-pyran-2-one]
IC50 (COX-1): 6.9 µM
IC50 (COX-2): 0.6 µM

Cc1cc(-c2ccc(S(C)(=O)=O)cc2)c(SC(C)C)c(=O)o1 [Example 10, 3-Isopropylthio-6-methyl-4-(4-(methylsulfonyl)phenyl)-pyran-2-one]
IC50 (COX-2): 0.8 µM

Cc1cc(-c2ccc(S(C)(=O)=O)cc2)c(CCC(C)(C)O)c(=O)o1 [Example 14, 3-(3-Hydroxy-3-methylbutyl)-6-methyl-4-(4-methylsulfonyl)phenyl-pyran-2-one]
IC50 (COX-2): 2.8 µM

CS(=O)(=O)c1ccc(-c2ccoc(=O)c2-c2ccccc2)cc1 [Example 1, 4-(4-Methylsulfonyl)phenyl-3-phenyl-pyran-2-one]
IC50 (COX-1): 13 µM
IC50 (COX-2): 0.12 µM

CS(=O)(=O)c1ccc(-c2cc(C(F)(F)F)oc(=O)c2Sc2ccccc2)cc1 [Example 11, 4-(4-(Methylsulfonyl)phenyl)-3-phenylthio-6-trifluoromethyl-pyran-2-one]
IC50 (COX-2): 0.01 µM

CS(=O)(=O)c1ccc(-c2cc(CF)oc(=O)c2-c2ccccc2)cc1 [Example 6, 6-Fluoromethyl-4-(4-methylsulfonyl)phenyl-3-phenyl-pyran-2-one]
IC50 (COX-2): 1.1 µM

CS(=O)(=O)c1ccc(-c2cc(C(F)F)oc(=O)c2-c2ccccc2)cc1 [Example 5, 6-Difluoromethyl-4-(4-methylsulfonyl)phenyl-3-phenyl-pyran-2-one]
IC50 (COX-2): 0.2 µM

CC(C)Sc1c(-c2ccc(S(C)(=O)=O)cc2)cc(C(F)(F)F)oc1=O [Example 12, 3-Isopropylthio-4-(4-(methylsulfonyl)phenyl)-6-trifluoromethyl-pyran-2-one]
IC50 (COX-2): 0.06 µM

Cc1cc(-c2ccc(S(C)(=O)=O)cc2)c(-c2ccc(F)cc2)c(=O)o1 [Example 2, 3-(4-Fluorophenyl)-6-methyl-4-(4-methylsulfonyl)phenyl-pyran-2-one]
IC50 (COX-1): 2 µM
IC50 (COX-2): 0.4 µM

Cc1cc(-c2ccc(S(C)(=O)=O)cc2)c(Sc2ccccc2)c(=O)o1 [Example 7, 6-Methyl-4-(4-(methylsulfonyl)phenyl)-3-phenylthio-pyran-2-one]
IC50 (COX-1): 16 µM
IC50 (COX-2): 0.14 µM

Cc1cc(-c2ccc(S(C)(=O)=O)cc2)c(-c2cccnc2)c(=O)o1 [Example 9]
IC50 (COX-1): 16 µM
IC50 (COX-2): 2.9 µM

Cc1cc(-c2ccc(S(C)(=O)=O)cc2)c(Oc2ccccc2)c(=O)o1 [Example 8, 6-Methyl-4-(4-(methylsulfonyl)phenyl)-3-phenoxy-pyran-2-one]
IC50 (COX-1): 13 µM
IC50 (COX-2): 0.2 µM

Cc1cc(-c2ccc(S(C)(=O)=O)cc2)c(-c2ccccc2)c(=O)o1 [Example 4, 6-Methyl-4-(4-methylsulfonyl)phenyl-3-phenyl-pyran-2-one]
IC50 (COX-1): 6.3 µM
IC50 (COX-2): 0.4 µM
